Experimental data as given in article PMC8694143 (Microbiology Spectrum, 2021).
No end group written: not given here.

How the values were obtained:
[1] = test system: S. scuri; assay: MIC determination in broth; format: cell-based; details: isolate from the healthy quarter of a dairy cow; MH broth
Protocol: (§1) The MICs were measured for bioactive peptides identified from the initial screen. Cation-adjusted Mueller-Hinton (MH) broth was used as the growth medium for MIC determination experiments. Bacterial cultures were diluted to an OD of 5 × 10^−4 (∼10^5 CFU/mL) in 200 μL MH broth mixed with peptides in a 2-fold dilution series arrayed in 96-well plates. Plates were incubated without shaking at 30 or 37°C depending on the organism.

[2] = test system: Escherichia coli DH10B; assay: MIC determination in broth; format: cell-based; details: MH broth
Protocol: as §1

[3] = test system: Pseudomonas aeruginosa ATCC 27853; assay: MIC determination in broth; format: cell-based; details: MH broth
Protocol: as §1

[4] = test system: Mannheimia haemolytica ATCC 33396; assay: MIC determination in broth; format: cell-based; details: MH broth
Protocol: as §1

[5] = test system: S. epidermidis; assay: MIC determination in broth; format: cell-based, Staphylococcus epidermidis; details: isolate from the healthy quarter of a dairy cow; MH broth
Protocol: as §1

[6] = test system: S. auricularis; assay: MIC determination in broth; format: cell-based, Staphylococcus auricularis; details: isolate from the healthy quarter of a dairy cow; MH broth
Protocol: as §1

[7] = Circular dichroism spectroscopy; format: physicochemical; details: CD, 50% TFE (vol/vol), peptide 0.2 mg/mL, room temperature
Protocol: Peptides were dissolved in ultrapure water or 50% TFE (vol/vol) at a concentration of 0.2 mg/mL for spectroscopy. Spectra of samples in a 1 mm pathlength quartz cuvette were recorded from 180 to 260 nm at 0.5 nm steps using an Applied Photophysics Chirascan Plus CD spectrophotometer operating at room temperature.

[8] = test system: panel of 7 MRSA strains; assay: Bactericidal activity time course, MRSA panel; format: cell-based, Staphylococcus aureus
Protocol: Time-dependent inhibition of pathogens was measured using standing bacterial cultures treated with 2× MIC. Overnight cultures were diluted to 10^4 or 10^7 CFU/mL in 2 mL of MH broth supplemented with the appropriate peptide concentration or sterile water as a control. Standing cultures were then incubated at 37°C and 100 μL aliquots were removed at specified time intervals. For the panel of 7 MRSA strains, treatment intervals of 30 min, 4 h, 8 h, and 24 h were used. For MRSA ATCC 33592, ATCC 1683, and S. pseudintermedius SPC002, shorter intervals included 5, 30, 60, 120, 240, and 360 min. The 100-μL aliquots were plated using serial dilutions as necessary on LB agar, and CFU were counted as a measure of bacterial viability after 24 h. To normalize cell viability data, surviving cells in CFU/mL were compared to the initial bacterial inoculum of each strain and then expressed as a percentage of that concentration. All experiments were performed in triplicate with values reported as the mean with standard deviations. Statistical differences in the observed viability of bacteria treated with STIP3-29 were analyzed using a paired two-tailed Student’s t test comparing the pretreatment (0 h) viability to those observed at posttreatment time points using Stata v17.0 software.

[9] = test system: 3D EpiDerm skin tissues; assay: Tissue cytotoxicity, alamarBlue; format: cell-based, human; details: 250 μg/mL (40-fold the MIC), 24 h, data not shown
Protocol: Cytotoxicity was measured using the 3D EpiDerm skin tissues and HeLa (ATCC CCL-2) cells using a fluorescent reporter of cell viability, alamarBlue (ThermoFisher Scientific). 3D EpiDerm skin tissues (MatTek EPI-200-AFAB) were transferred to a 12-well plate containing 600 μL of AFAB-assay medium supplemented with 10% vol/vol alamarBlue. […] HeLa cells were seeded in a 96-well plate at 2 × 10^4 cells/per well and incubated overnight at 37°C in a humidified 5% CO2 environment to prepare wells at ∼50% confluence for treatments after spent Dulbecco’s modified Eagle’s medium (DMEM) was removed and cells were washed with PBS. Assays were then performed using phenol red-free DMEM supplement with 9% vol/vol alamarBlue and peptide concentrations varying from 3.13 to 200 μg/mL. After a 24 h incubation period, alamarBlue fluorescence emission was measured at 590 nm upon excitation at 560 nm using Varioskan Lux plate reader (Thermo Scientific). Fluorescence intensities of treated cultures were normalized to measurement made for untreated control samples. Experimental data sets were fit to nonlinear dose-response curves to determine IC50 values using Origin 2019.

[10] = test system: S. pseudintermedius human isolate SPC020 (MSSR); assay: MIC determination in broth; format: cell-based, Staphylococcus pseudintermedius; details: MH broth
Protocol: as §1

[11] = test system: S. pseudintermedius canine isolate MRSP24; assay: MIC determination in broth; format: cell-based, Staphylococcus pseudintermedius; details: MH broth
Protocol: as §1

[12] = test system: S. pseudintermedius canine isolate MRSP16; assay: MIC determination in broth; format: cell-based, Staphylococcus pseudintermedius; details: MH broth
Protocol: as §1

[13] = test system: S. pseudintermedius canine isolate MSSP42; assay: MIC determination in broth; format: cell-based, Staphylococcus pseudintermedius; details: MH broth
Protocol: as §1

[14] = test system: S. pseudintermedius human isolate SPC001 (MSSP); assay: MIC determination in broth; format: cell-based, Staphylococcus pseudintermedius; details: MH broth
Protocol: as §1

[15] = test system: S. pseudintermedius human isolate SPC002 (MSSP); assay: MIC determination in broth; format: cell-based, Staphylococcus pseudintermedius; details: MH broth
Protocol: as §1

[16] = test system: sheep red blood cells; assay: Hemolytic activity assay; format: cell-based; details: peptides at 100 μg/mL, 1 h, relative to the δ-toxin and other STIPs
Protocol: Thirty-five percent defibrinated sheep’s blood (vol/vol) was centrifuged for 5 min at 4,000 rpm to harvest red blood cells. The cells were washed three times with PBS and harvested by centrifugation prior to dilution to 15% (vol/vol) in PBS in order to evaluate peptide-mediated hemolysis. The assay was performed in 96-well microtiter plates using peptides at 100 μg/mL in a 200-μL volume. […] was used as a negative control and Triton X-100 (0.1% vol/vol) was used as a positive control for complete lysis. After 1 h of incubation, the 96-well microtiter plates were centrifuged at 4,500 rpm for 10 min and a 150 μL aliquot of the supernatant from each sample was carefully transferred to a new 96-well plate. The absorbance of the supernatant was then measured at 540 nm using a Varioskan Lux plate reader (Thermo Scientific). The hemolytic activity is reported relative to complete lysis (%) obtained using Triton X-100. Experiments were performed in triplicate, and statistical differences in hemolysis were measured using an unpaired two-tailed Student’s t test to compare the STIPs and deformylated δ-toxin to the formylated δ-toxin.

TVGGLVKWILKTVKKFA-NH2 [STIP3-29]
MIC, S. scuri [1]: 3.13 µg/mL
MIC, Escherichia coli DH10B [2]: 12.5 µg/mL
MIC, Pseudomonas aeruginosa ATCC 27853 [3]: 50 µg/mL
MIC, Mannheimia haemolytica ATCC 33396 [4]: 6.25 µg/mL
MIC, S. epidermidis [5]: 3.13 µg/mL
MIC, S. auricularis [6]: 1.56 µg/mL
α-Helical content (%) [7]: 61%
Recovery of viable MRSA cells ([8]; 12.5 μg/mL (2× MIC), MH broth, 37°C, 4 h, all 7 MRSA strains, triplicate): less than 1%
Mode of antibacterial action from viability time courses ([8]; MRSA viability during two time course experiments): bactericidal
Tissue-level cytotoxicity, redox-sensitive dye [9]: unable to differentiate STIP3-29-treated and untreated samples
MIC, S. pseudintermedius SPC020 (MSSR) [10]: 3.13 µg/mL
MIC, S. pseudintermedius MRSP24 [11]: 3.13 µg/mL
MIC, S. pseudintermedius MRSP16 [12]: 3.13 µg/mL
MIC, S. pseudintermedius MSSP42 [13]: 3.13 µg/mL
MIC, S. pseudintermedius SPC001 (MSSP) [14]: 3.13 µg/mL
MIC, S. pseudintermedius SPC002 (MSSP) [15]: 3.13 µg/mL
Change of hemolytic activity [16]: increase in hemolysis
